Assay results published in US12448388B2, “PRMT5 inhibitors and uses thereof” (Gilead Sciences, Inc., priority 2023, dated 2025).
Like-named read-outs stand apart in the source and are kept apart here.

Tests used:
[1] = test system: Symmetric Di-methyl Arginine (SDMA) signal (PRMT5 inhibition) in HCT116 MTAP-deleted cells; assay: Symmetric di-methyl arginine image-based high content screen assay (SDMA assay), HCT116 MTAP-deleted; format: cell-based; details: for EC50: Homo sapiens, HCT-116, HCT116 MTAP-deleted, class symbols
Method: Symmetric di-methyl arginine image-based high content screen assay (SDMA assay) was performed in HCT116 WT and HCT116 MTAP-deleted cell lines to measure Symmetric Di-methyl Arginine (SDMA) signal reduction after selective PRMT5 inhibition in the MTAP-deleted cells. Control compounds were analyzed in parallel each time for quality control.
Briefly, the same compound plates were generated as mentioned in the previous section of Cell viability assay on Day −1. On Day 0, 800 HCT WT or HCT116 MTAP-deleted cell were seeded in compound-containing 384 well plates (50 μl per well) in RPMI 1640 media supplemented with 10% heat inactivated fetal bovine serum, Glutamax and penicillin streptomycin using EL460 liquid dispenser 5 μl cassette (BioTek, part no. 7170011). After equilibrating the plate at room temperature, the cells were incubated for 3 days inside the sealed incubator set at 37° C. with 90% humidity and 5% C02.
On Day 3, the cells were fixed by adding 45 μl of 8% neutralized formalin solution to each well using EL460 liquid dispenser 5 μl cassette and the cells were incubated for 30 minutes at room temperature. The formalin solution was washed off with […] phosphate buffered saline (dPBS), the 0.1% Triton X-100 solution in dPBS was used to permeabilize the cells for 15 minutes at room temperature. The triton solution was aspirated, 50 μl of Odyssey Blocking buffer +0.05% Tween20 was added and the plate was incubated at room temperature for 30 minutes.
The blocking solution was removed, a 20 μl of SDMA antibody (Cell Signaling Technology, Cat no. 13222) diluted 1:500 in Odyssey Blocking buffer +0.05% Tween20 was added and the plate was incubated at 4° C. overnight. Next day, the primary SDME antibody solution was washed from each well three times with 0.05% Tween20 in dPBS (PBST).
A 30 μl of the secondary antibody, a Goat anti-Rabbit Alexa Fluor Plus 488 (Invitrogen, Cat no. PIA32731) was diluted 1:500 in Odyssey Blocking buffer +0.05% Tween20 and the plate was incubated for 1.5 hours in dark at room temperature. The secondary antibody solution was removed, 30 μl of 5 mg/ml DAPI solution diluted 1:2000 in dPBS was added and the plate was incubated for 30 minutes in dark at room temperature. The DAPI solution was aspirated and the wells were washed six times with dPBS.
The SDMA signal and DAPI signal per cell were counted using a Cellomics CX7 LZR instrument reading under 488 and 405 nm laser, respectively. The SDMA signal was quantified by mean average intensity per cell from Alexa Fluor Plus 488 after the cell was defined with DAPI. The EC50 values for each compound after 3 days of treatment were calculated using 4 parameter non-linear logistical curve fit.
For the SDMA assay i.e. EC50 shown in Table 3A: A: EC50≤1 nM, B: 1 nM<EC50≤5 nM, C: EC50>5 nM.

[2] = test system: HCT116 MTAP-deleted cell lines; assay: Cell viability assay (CellTiter-Glo, 7 days), HCT116 MTAP-deleted; format: cell-based; details: Homo sapiens, HCT-116, HCT116 MTAP-deleted, class symbols, read-out: CC50
Summary of the method: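 CC50 values come from 7-day CellTiter-Glo viability measurements on cells exposed to a dose range of PRMT5 inhibitors dispensed from DMSO stocks.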

[3] = HCT116 WT versus HCT116 MTAP-deleted
[4] = HCT116 WT vs HCT116 MTAP-deleted

SMILES	EC50 selectivity [1, 3]	EC50 [1]	EC50 selectivity [1, 4]	CC50 ([2]; cell viability)	CC50 ([2]; cell viability assay)
Nc1nc2cnc(C(=O)N3CCC4(CC4)[C@@H]4Oc5cc(OC(F)(F)F)ccc5[C@@H]43)cc2n2cncc12 [Ff-618, (4-aminoimidazo[1,5-a]pyrido[3,4-e]pyrazin-8-yl)((4aS,9bS)-7-(trifluoromethoxy)-2,3,4a,9b-tetrahydro-1H-spiro[benzofuro[3,2-b]pyridine-4,1′-cyclopropan]-1-yl)methanone]		1 to 5 nM	294		< 100 nM
C[C@H]1C[C@@H]2Oc3cc(OC(F)(F)F)ccc3[C@@H]2N(C(=O)c2cc3c(cn2)nc(N)c2cncn23)C1 [Fg-54, (4-aminoimidazo[1,5-a]pyrido[3,4-e]pyrazin-8-yl)((3S,4aS,9bS)-3-methyl-7-(trifluoromethoxy)-3,4,4a,9b-tetrahydrobenzofuro[3,2-b]pyridin-1(2H)-yl)methanone]		≤ 1 nM	69		< 100 nM
Nc1nc2cnc(C(=O)N3CCC[C@@H]4Oc5cc(C(F)(F)F)ccc5[C@@H]43)cc2n2cnc(F)c12 (single isomer, unassigned) [Ff-626]		1 to 5 nM	143		< 100 nM
Cc1ncc2c(N)nc3cc(F)c(C(=O)N(C)[C@@H]4COc5cc(C(F)(F)F)ccc54)cc3n12 [Ff-59, (S)-4-amino-7-fluoro-N,1-dimethyl-N-(6-(trifluoromethyl)-2,3-dihydrobenzofuran-3-yl)imidazo[1,5-a]quinoxaline-8-carboxamide]	65	1 to 5 nM		< 100 nM	
CCN(Cc1ccc(C(F)(F)F)cc1F)C(=O)c1cc2c(cc1F)nc(N)c1cncn12 [Ff-26, 4-amino-N-ethyl-7-fluoro-N-[[2-fluoro-4-(trifluoromethyl)phenyl]methyl]imidazo[1,5-a]quinoxaline-8-carboxamide]	210	≤ 1 nM		< 100 nM	
Cc1ncc2c(N)nc3ccc(C(=O)N4C[C@@H](F)C[C@@H]5Oc6cc(C(F)(F)F)ccc6[C@@H]54)cc3n12 [Ff-660, (4-amino-1-methylimidazo[1,5-a]quinoxalin-8-yl)((3S,4aS,9bS)-3-fluoro-7-(trifluoromethyl)-3,4,4a,9b-tetrahydrobenzofuro[3,2-b]pyridin-1(2H)-yl)methanone]		≤ 1 nM	122		< 100 nM
Cc1ncc2c(N)nc3ccc(C(=O)N4CCC5(CC4)CC(=O)c4ccccc4O5)cc3n12 [Ff-60, 1′-(4-amino-1-methylimidazo[1,5-a]quinoxaline-8-carbonyl)spiro[chromane-2,4′-piperidin]-4-one]	371	> 5 nM		100 to 1000 nM	
Cc1ncn2c1c(N)nc1cnc(C(=O)N3C[C@H](C)C[C@@H]4Oc5cc(C(F)(F)F)ccc5[C@@H]43)cc12 [Ff-624, (4-amino-3-methylimidazo[1,5-a]pyrido[3,4-e]pyrazin-8-yl)((3R,4aS,9bS)-3-methyl-7-(trifluoromethyl)-3,4,4a,9b-tetrahydrobenzofuro[3,2-b]pyridin-1(2H)-yl)methanone]		> 5 nM	27		100 to 1000 nM
Nc1nc2cc(F)c(C(=O)N3CCC(c4ccc(C(F)(F)F)cc4F)C3)cc2n2cncc12 (stereo not drawn) [Ff-4, (4-amino-7-fluoroimidazo[1,5-a]quinoxalin-8-yl)(3-(2-fluoro-4-(trifluoromethyl)phenyl)pyrrolidin-1-yl)methanone]	2956	> 5 nM		100 to 1000 nM	
Cc1ncn2c1c(N)nc1cc(F)c(C(=O)N3CCC[C@@H]4Oc5cc(C(F)(F)C(F)(F)F)ncc5[C@@H]43)cc12 [Fg-41, (4-amino-7-fluoro-3-methylimidazo[1,5-a]quinoxalin-8-yl)((4aS,9bS)-7-(perfluoroethyl)-3,4,4a,9b-tetrahydrofuro[3,2-b:4,5-c′]dipyridin-1(2H)-yl)methanone]		1 to 5 nM	42		< 100 nM
CN(C(=O)c1cc2c(cc1Br)nc(N)c1cncn12)[C@@H]1COc2cc(C(F)(F)F)ccc21 [Fg-48, (S)-4-amino-7-bromo-N-methyl-N-(6-(trifluoromethyl)-2,3-dihydrobenzofuran-3-yl)imidazo[1,5-a]quinoxaline-8-carboxamide]		≤ 1 nM	94		< 100 nM
Cc1ncn2c1c(N)nc1ccc(C(=O)N(C)C3CCc4nc(C(F)(F)F)ccc43)cc12 (stereo not drawn) [Fg-12, 4-amino-N,3-dimethyl-N-(2-(trifluoromethyl)-6,7-dihydro-5H-cyclopenta[b]pyridin-5-yl)imidazo[1,5-a]quinoxaline-8-carboxamide]		≤ 1 nM	168		< 100 nM

More lines, main results first:

EC50 selectivity [1, 3]	EC50 [1]	EC50 selectivity [1, 4]	SMILES	CC50 ([2]; cell viability)	CC50 ([2]; cell viability assay)
118	1 to 5 nM		CN(C(=O)c1cc2c(cc1F)nc(N)c1cncn12)[C@@H]1COCc2cc(-c3ccn(C(F)(F)F)n3)ccc21 [Ff-280, (S)-4-amino-7-fluoro-N-methyl-N-(7-(1-(trifluoromethyl)-1H-pyrazol-3-yl)isochroman-4-yl)imidazo[1,5-a]quinoxaline-8-carboxamide]	< 100 nM	
	1 to 5 nM	337	CN(C(=O)c1cc2c(cc1F)nc(N)c1cncn12)[C@@H]1COc2cc(C#CC3(C)COC3)ccc21 [Ff-516, (S)-4-amino-7-fluoro-N-methyl-N-(6-((3-methyloxetan-3-yl)ethynyl)-2,3-dihydrobenzofuran-3-yl)imidazo[1,5-a]quinoxaline-8-carboxamide]		< 100 nM
	≤ 1 nM	107	Nc1nc2ccc(C(=O)N3CCC4(CC4)[C@@H]4Oc5cc(C(F)(F)F)ccc5[C@@H]43)cc2n2cncc12 [Ff-675, (4-aminoimidazo[1,5-a]quinoxalin-8-yl)((4aS,9bS)-7-(trifluoromethyl)-2,3,4a,9b-tetrahydro-1H-spiro[benzofuro[3,2-b]pyridine-4,1′-cyclopropan]-1-yl)methanone]		< 100 nM
	> 5 nM	6	Nc1nc2ccc(C(=O)N(Cc3cc4ccccn4n3)C34CC(C3)C4)cc2c2cncn12 [Fg-16, 5-amino-N-(bicyclo[1.1.1]pentan-1-yl)-N-(pyrazolo[1,5-a]pyridin-2-ylmethyl)imidazo[1,5-c]quinazoline-9-carboxamide]		> 1000 nM
33	≤ 1 nM		CC(C)N(Cc1ccc(C(F)(F)F)cn1)C(=O)c1cc2c(cc1F)nc(N)c1cncn12 [Ff-7, 4-amino-7-fluoro-N-isopropyl-N-((5-(trifluoromethyl)pyridin-2-yl)methyl)imidazo[1,5-a]quinoxaline-8-carboxamide]	< 100 nM	
	≤ 1 nM	389	CN(C(=O)c1ccc2nc(N)c3cncn3c2c1)[C@@H]1COc2cc(C34CC(C(F)F)(C3)C4)ccc21 [Ff-641, (S)-4-amino-N-(6-(3-(difluoromethyl)bicyclo[1.1.1]pentan-1-yl)-2,3-dihydrobenzofuran-3-yl)-N-methylimidazo[1,5-a]quinoxaline-8-carboxamide]		< 100 nM
	≤ 1 nM	65	Nc1nc2ccc(C(=O)N(CC3CC3)[C@@H]3COc4cc(C(F)(F)F)ccc43)cc2n2cncc12 [Ff-407, (S)-4-amino-N-(cyclopropylmethyl)-N-[(3S)-6-(trifluoromethyl)-2,3-dihydrobenzofuran-3-yl]imidazo[1,5-a]quinoxaline-8-carboxamide]		< 100 nM
